{"source": "patent US7387997B2", "about": "(University of Utah, priority 2004, dated 2008)", "key": {"Rat α6/α3β2β3 nAChR": {"biological_target": "T1, Rat α6/α3β2β3 nAChR (Rattus norvegicus, UniProt P04757+P12390+P43143)", "T1 construct": "amino acids 1 to 237 of the rat α6 subunit protein; amino acids 233 to 499 of the rat α3 subunit protein; expressed in transfected cells; host or cells: Xenopus laevis oocytes, cRNA injected (pT7TS/rα6α3 for the chimera)", "T1 sequence (P43143 31-237 limits assumed)": "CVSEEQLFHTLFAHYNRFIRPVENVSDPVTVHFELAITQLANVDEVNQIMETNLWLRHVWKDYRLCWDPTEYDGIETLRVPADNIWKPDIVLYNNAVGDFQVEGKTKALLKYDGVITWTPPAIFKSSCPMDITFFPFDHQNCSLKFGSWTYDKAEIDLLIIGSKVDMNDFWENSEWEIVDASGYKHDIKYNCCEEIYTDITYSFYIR", "T1 sequence (P04757 233-499 limits assumed)": "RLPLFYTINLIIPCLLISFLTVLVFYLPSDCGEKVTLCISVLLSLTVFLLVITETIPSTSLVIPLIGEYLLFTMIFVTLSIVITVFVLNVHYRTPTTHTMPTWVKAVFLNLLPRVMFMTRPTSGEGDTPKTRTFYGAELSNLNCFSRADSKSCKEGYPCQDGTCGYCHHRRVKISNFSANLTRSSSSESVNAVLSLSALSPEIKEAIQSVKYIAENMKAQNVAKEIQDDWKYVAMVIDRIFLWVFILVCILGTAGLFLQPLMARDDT", "T1 sequence (P12390 25-500 limits assumed)": "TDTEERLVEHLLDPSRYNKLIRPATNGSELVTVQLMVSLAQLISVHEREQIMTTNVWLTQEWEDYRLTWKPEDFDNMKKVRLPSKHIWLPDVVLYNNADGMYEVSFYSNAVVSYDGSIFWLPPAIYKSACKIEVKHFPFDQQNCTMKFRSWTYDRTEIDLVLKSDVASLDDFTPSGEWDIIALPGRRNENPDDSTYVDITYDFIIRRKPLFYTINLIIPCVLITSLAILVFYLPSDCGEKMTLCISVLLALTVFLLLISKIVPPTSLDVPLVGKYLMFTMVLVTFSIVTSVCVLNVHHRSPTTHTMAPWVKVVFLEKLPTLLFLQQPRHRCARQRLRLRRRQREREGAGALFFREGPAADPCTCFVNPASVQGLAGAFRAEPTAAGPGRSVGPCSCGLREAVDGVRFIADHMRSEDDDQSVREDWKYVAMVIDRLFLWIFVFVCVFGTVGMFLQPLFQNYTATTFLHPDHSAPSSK", "experiment": "cell-based", "assay_type": "cell-based"}, "Rat α3β2 nAChR": {"biological_target": "T2, Rat α3β2 nAChR (Rattus norvegicus, UniProt P04757+P12390)", "T2 construct": "expressed in transfected cells; host or cells: Xenopus laevis oocytes, cRNA injected", "T2 sequence (P04757 26-499 limits assumed)": "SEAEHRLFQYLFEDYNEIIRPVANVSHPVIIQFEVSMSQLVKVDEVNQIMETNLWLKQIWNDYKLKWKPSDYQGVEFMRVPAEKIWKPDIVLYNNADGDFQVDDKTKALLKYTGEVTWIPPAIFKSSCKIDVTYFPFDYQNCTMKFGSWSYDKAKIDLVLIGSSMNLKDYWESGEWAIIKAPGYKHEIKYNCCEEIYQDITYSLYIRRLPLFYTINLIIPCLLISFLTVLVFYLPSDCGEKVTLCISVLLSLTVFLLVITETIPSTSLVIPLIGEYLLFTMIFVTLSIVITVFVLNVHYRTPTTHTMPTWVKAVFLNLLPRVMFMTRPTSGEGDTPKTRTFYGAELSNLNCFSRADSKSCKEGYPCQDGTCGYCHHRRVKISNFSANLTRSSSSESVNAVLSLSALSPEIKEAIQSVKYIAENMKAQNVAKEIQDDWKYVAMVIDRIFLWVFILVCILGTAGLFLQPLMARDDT", "T2 sequence (P12390 25-500 limits assumed)": "as the sequence (P12390 25-500 limits assumed) above", "experiment": "cell-based", "assay_type": "cell-based"}, "[1]": {"biological_target": "Mouse CNS α-MII Site (putative α6β2* nAChRs)", "assay_type": "binding"}}, "note": "Where a SMILES comes first, the peptide text is derived from it. Bridges are numbered along the chain shown (N, C = ends)."}
{"compound": "CC(C)C[C@@H]1NC(=O)[C@H](CC(N)=O)NC(=O)[C@H](CO)NC(=O)[C@H](Cc2c[nH]cn2)NC(=O)[C@H](CCC(=O)O)NC(=O)[C@H](CC(C)C)NC(=O)[C@H](Cc2c[nH]cn2)NC(=O)[C@@H]2CSSC[C@H](NC(=O)CN)C(=O)N[C@@H](CSSC[C@@H](C(N)=O)NC1=O)C(=O)N[C@@H](C)C(=O)N[C@@H](CC(N)=O)C(=O)N1CCC[C@H]1C(=O)N[C@@H](C(C)C)C(=O)N2", "note": "[MII[S4A]] (H-GCCANPVCHLEHSNLC-NH2; disulfide 2-8, 3-16)", "values": [{"measurement": "IC50", "setting": "Rat α6/α3β2β3 nAChR", "result": 0.733, "unit": "nM"}, {"measurement": "IC50", "setting": "Rat α3β2 nAChR", "result": 15.8, "unit": "nM"}, {"measurement": "Ratio IC50 α3β2/IC50 α6/α3β2β3", "setting": "Rat α3β2 nAChR", "result": 21.56}]}
{"compound": "CC(C)C[C@@H]1NC(=O)[C@H](CC(N)=O)NC(=O)[C@H](CO)NC(=O)[C@H](Cc2c[nH]cn2)NC(=O)[C@H](CCC(=O)O)NC(=O)[C@H](CC(C)C)NC(=O)[C@H](Cc2c[nH]cn2)NC(=O)[C@@H]2CSSC[C@H](NC(=O)CN)C(=O)N[C@@H](CSSC[C@@H](C(N)=O)NC1=O)C(=O)N[C@@H](CO)C(=O)N[C@@H](CC(N)=O)C(=O)N1CCC[C@H]1C(=O)N[C@@H](C)C(=O)N2", "note": "[MII[V7A]] (H-GCCSNPACHLEHSNLC-NH2; disulfide 2-8, 3-16)", "values": [{"measurement": "IC50", "setting": "Rat α6/α3β2β3 nAChR", "result": 10.6, "unit": "nM"}, {"measurement": "IC50", "setting": "Rat α3β2 nAChR", "result": 4.46, "unit": "nM"}, {"measurement": "Ratio IC50 α3β2/IC50 α6/α3β2β3", "setting": "Rat α3β2 nAChR", "result": 0.421}]}
{"compound": "CC(C)C[C@@H]1NC(=O)[C@H](CC(N)=O)NC(=O)[C@H](CO)NC(=O)[C@H](Cc2c[nH]cn2)NC(=O)[C@H](CCC(=O)O)NC(=O)[C@H](C)NC(=O)[C@H](Cc2c[nH]cn2)NC(=O)[C@@H]2CSSC[C@H](NC(=O)CN)C(=O)N[C@@H](CSSC[C@@H](C(N)=O)NC1=O)C(=O)N[C@@H](CO)C(=O)N[C@@H](CC(N)=O)C(=O)N1CCC[C@H]1C(=O)N[C@@H](C(C)C)C(=O)N2", "note": "[MII[L10A]] (H-GCCSNPVCHAEHSNLC-NH2; disulfide 2-8, 3-16)", "values": [{"measurement": "IC50", "setting": "Rat α6/α3β2β3 nAChR", "result": 0.482, "unit": "nM"}, {"measurement": "IC50", "setting": "Rat α3β2 nAChR", "result": 1.47, "unit": "nM"}, {"measurement": "Ratio IC50 α3β2/IC50 α6/α3β2β3", "setting": "Rat α3β2 nAChR", "result": 3.05}]}
{"compound": "CC(C)[C@@H]1NC(=O)[C@@H]2CCCN2C(=O)[C@H](CC(N)=O)NC(=O)[C@H](CO)NC(=O)[C@@H]2CSSC[C@@H](C(N)=O)NC(=O)[C@H](C)NC(=O)[C@H](CC(N)=O)NC(=O)[C@H](CO)NC(=O)[C@H](Cc3c[nH]cn3)NC(=O)[C@H](CCC(=O)O)NC(=O)[C@H](C)NC(=O)[C@H](Cc3c[nH]cn3)NC(=O)[C@H](CSSC[C@H](NC(=O)CN)C(=O)N2)NC1=O", "note": "[MII[L10A; L15A]] (H-GCCSNPVCHAEHSNAC-NH2; disulfide 2-8, 3-16)", "values": [{"measurement": "IC50", "setting": "Rat α6/α3β2β3 nAChR", "result": 1.8, "unit": "nM"}, {"measurement": "IC50", "setting": "Rat α3β2 nAChR", "result": 17.2, "unit": "nM"}, {"measurement": "Ratio IC50 α3β2/IC50 α6/α3β2β3", "setting": "Rat α3β2 nAChR", "result": 9.56}]}
{"compound": "CC(C)C[C@@H]1NC(=O)[C@H](C)NC(=O)[C@@H]2CSSC[C@H](NC(=O)CN)C(=O)N[C@@H](CSSC[C@@H](C(N)=O)NC(=O)[C@H](CC(C)C)NC(=O)[C@H](CC(N)=O)NC(=O)[C@H](CO)NC(=O)[C@H](Cc3c[nH]cn3)NC(=O)[C@H](CCC(=O)O)NC1=O)C(=O)N[C@@H](C)C(=O)N[C@@H](CC(N)=O)C(=O)N1CCC[C@H]1C(=O)N[C@@H](C(C)C)C(=O)N2", "note": "[MII[S4A; H9A]] (H-GCCANPVCALEHSNLC-NH2; disulfide 2-8, 3-16)", "values": [{"measurement": "IC50", "setting": "Rat α6/α3β2β3 nAChR", "result": 1.97, "unit": "nM"}, {"measurement": "IC50", "setting": "Rat α3β2 nAChR", "result": 207, "unit": "nM"}, {"measurement": "Ratio IC50 α3β2/IC50 α6/α3β2β3", "setting": "Rat α3β2 nAChR", "result": 105}]}
{"compound": "CC(C)C[C@@H]1NC(=O)[C@H](CC(N)=O)NC(=O)[C@H](CO)NC(=O)[C@H](Cc2c[nH]cn2)NC(=O)[C@H](CCC(=O)O)NC(=O)[C@H](CC(C)C)NC(=O)[C@H](Cc2c[nH]cn2)NC(=O)[C@@H]2CSSC[C@H](NC(=O)CN)C(=O)N[C@@H](CSSC[C@@H](C(N)=O)NC1=O)C(=O)N[C@@H](CO)C(=O)N[C@@H](C)C(=O)N1CCC[C@H]1C(=O)N[C@@H](C(C)C)C(=O)N2", "note": "[MII[N5A]] (H-GCCSAPVCHLEHSNLC-NH2; disulfide 2-8, 3-16)", "values": [{"measurement": "IC50", "setting": "Rat α6/α3β2β3 nAChR", "result": 793, "unit": "nM"}, {"measurement": "IC50", "setting": "Rat α3β2 nAChR", "result": "> 10000", "unit": "nM"}, {"measurement": "Ratio IC50 α3β2/IC50 α6/α3β2β3", "setting": "Rat α3β2 nAChR", "result": ">12.6"}]}
{"compound": "CC(C)C[C@@H]1NC(=O)[C@H](CC(N)=O)NC(=O)[C@H](CO)NC(=O)[C@H](C)NC(=O)[C@H](CCC(=O)O)NC(=O)[C@H](CC(C)C)NC(=O)[C@H](Cc2c[nH]cn2)NC(=O)[C@@H]2CSSC[C@H](NC(=O)CN)C(=O)N[C@@H](CSSC[C@@H](C(N)=O)NC1=O)C(=O)N[C@@H](CO)C(=O)N[C@@H](CC(N)=O)C(=O)N1CCC[C@H]1C(=O)N[C@@H](C(C)C)C(=O)N2", "note": "[MII[H12A]] (H-GCCSNPVCHLEASNLC-NH2; disulfide 2-8, 3-16)", "values": [{"measurement": "IC50", "setting": "Rat α6/α3β2β3 nAChR", "result": 604, "unit": "nM"}, {"measurement": "IC50", "setting": "Rat α3β2 nAChR", "result": 4660, "unit": "nM"}, {"measurement": "Ratio IC50 α3β2/IC50 α6/α3β2β3", "setting": "Rat α3β2 nAChR", "result": 7.72}]}
{"compound": "CC(C)C[C@@H]1NC(=O)[C@H](CC(N)=O)NC(=O)[C@H](C)NC(=O)[C@H](Cc2c[nH]cn2)NC(=O)[C@H](CCC(=O)O)NC(=O)[C@H](CC(C)C)NC(=O)[C@H](Cc2c[nH]cn2)NC(=O)[C@@H]2CSSC[C@H](NC(=O)CN)C(=O)N[C@@H](CSSC[C@@H](C(N)=O)NC1=O)C(=O)N[C@@H](CO)C(=O)N[C@@H](CC(N)=O)C(=O)N1CCC[C@H]1C(=O)N[C@@H](C(C)C)C(=O)N2", "note": "[MII[S13A]] (H-GCCSNPVCHLEHANLC-NH2; disulfide 2-8, 3-16)", "values": [{"measurement": "IC50", "setting": "Rat α6/α3β2β3 nAChR", "result": 0.659, "unit": "nM"}, {"measurement": "IC50", "setting": "Rat α3β2 nAChR", "result": 2.54, "unit": "nM"}, {"measurement": "Ratio IC50 α3β2/IC50 α6/α3β2β3", "setting": "Rat α3β2 nAChR", "result": 3.85}]}
{"compound": "CC(C)C[C@@H]1NC(=O)[C@H](CC(N)=O)NC(=O)[C@H](CO)NC(=O)[C@H](Cc2c[nH]cn2)NC(=O)[C@H](CCC(=O)O)NC(=O)[C@H](CC(C)C)NC(=O)[C@H](Cc2c[nH]cn2)NC(=O)[C@@H]2CSSC[C@H](NC(=O)CN)C(=O)N[C@@H](CSSC[C@@H](C(N)=O)NC1=O)C(=O)N[C@@H](CO)C(=O)N[C@@H](CC(N)=O)C(=O)N1CCC[C@H]1C(=O)N[C@@H](C(C)C)C(=O)N2", "note": "[MII, reference compound]", "values": [{"measurement": "Ki", "setting": "[1]", "result": 0.22, "unit": "nM"}, {"measurement": "Hill slope, α3β2", "setting": "Rat α3β2 nAChR", "result": "0.75±0.13"}]}
{"compound": "CC(C)C[C@@H]1NC(=O)[C@H](CC(N)=O)NC(=O)[C@H](CO)NC(=O)[C@H](Cc2c[nH]cn2)NC(=O)[C@H](CCC(=O)O)NC(=O)[C@H](CC(C)C)NC(=O)[C@H](Cc2c[nH]cn2)NC(=O)[C@@H]2CSSC[C@H](NC(=O)CN)C(=O)N[C@@H](CSSC[C@@H](C(N)=O)NC1=O)C(=O)N[C@@H](CO)C(=O)N[C@@H](CC(N)=O)C(=O)N[C@@H](C)C(=O)N[C@@H](C(C)C)C(=O)N2", "note": "[MII[P6A]] (H-GCCSNAVCHLEHSNLC-NH2; disulfide 2-8, 3-16)", "values": [{"measurement": "IC50", "setting": "Rat α6/α3β2β3 nAChR", "result": 253, "unit": "nM"}, {"measurement": "IC50", "setting": "Rat α3β2 nAChR", "result": 4420, "unit": "nM"}, {"measurement": "Ratio IC50 α3β2/IC50 α6/α3β2β3", "setting": "Rat α3β2 nAChR", "result": 17.5}]}
{"compound": "CC(C)C[C@@H]1NC(=O)[C@H](Cc2c[nH]cn2)NC(=O)[C@@H]2CSSC[C@H](NC(=O)CN)C(=O)N[C@@H](CSSC[C@@H](C(N)=O)NC(=O)[C@H](C)NC(=O)[C@H](CC(N)=O)NC(=O)[C@H](CO)NC(=O)[C@H](Cc3c[nH]cn3)NC(=O)[C@H](C)NC1=O)C(=O)N[C@@H](CO)C(=O)N[C@@H](CC(N)=O)C(=O)N1CCC[C@H]1C(=O)N[C@@H](C(C)C)C(=O)N2", "note": "[MII[E11A; L15A]] (H-GCCSNPVCHLAHSNAC-NH2; disulfide 2-8, 3-16)", "values": [{"measurement": "IC50", "setting": "Rat α6/α3β2β3 nAChR", "result": 0.415, "unit": "nM"}, {"measurement": "IC50", "setting": "Rat α3β2 nAChR", "result": 50.1, "unit": "nM"}, {"measurement": "Ratio IC50 α3β2/IC50 α6/α3β2β3", "setting": "Rat α3β2 nAChR", "result": 121}]}
{"compound": "CC(C)C[C@@H]1NC(=O)[C@H](C)NC(=O)[C@H](CO)NC(=O)[C@H](Cc2c[nH]cn2)NC(=O)[C@H](CCC(=O)O)NC(=O)[C@H](CC(C)C)NC(=O)[C@H](Cc2c[nH]cn2)NC(=O)[C@@H]2CSSC[C@H](NC(=O)CN)C(=O)N[C@@H](CSSC[C@@H](C(N)=O)NC1=O)C(=O)N[C@@H](CO)C(=O)N[C@@H](CC(N)=O)C(=O)N1CCC[C@H]1C(=O)N[C@@H](C(C)C)C(=O)N2", "note": "[MII[N14A]] (H-GCCSNPVCHLEHSALC-NH2; disulfide 2-8, 3-16)", "values": [{"measurement": "IC50", "setting": "Rat α6/α3β2β3 nAChR", "result": 1.06, "unit": "nM"}, {"measurement": "IC50", "setting": "Rat α3β2 nAChR", "result": 25.7, "unit": "nM"}, {"measurement": "Ratio IC50 α3β2/IC50 α6/α3β2β3", "setting": "Rat α3β2 nAChR", "result": 24.2}]}
